Measured values as given in ChEMBL document CHEMBL4049396, “Enzymatic and solid-phase synthesis of new donepezil-based L- and d-glutamic acid derivatives and their pharmacological evaluation in models related to Alzheimer's disease and cerebral ischemia” (Eur J Med Chem, 2017).
Active and inactive are the calls of the source. No cut-off for these calls is given here.

How the values were obtained:
SH-SY5Y [1] = assay: Neuroprotective activity against oxygen glucose deprivation/re-oxygenation-induced mitochondrial oxidative stress in human SH-SY5Y cells assessed as cell survival at 0.3 uM pretreated for 24 hrs followed by 4 hrs incubation under oxygen glucose deprivation medium and subsequent exposure to normoxic condition by MTT assay relative to control; assay type: functional; details: read-out: Survival
[2] = Antioxidant activity assessed as oxygen radical absorbance capacity at 10 uM; assay type: functional
Acetylcholinesterase = Acetylcholinesterase (Homo sapiens, UniProt P22303); assay: Inhibition of recombinant human AChE expressed in HEK293 cells using acetylthiocholine iodide as substrate pretreated for 5 mins followed by substrate addition measured for 5 mins by UV-Vis spectrophotometric method
Sequence of Acetylcholinesterase (P22303 whole entry): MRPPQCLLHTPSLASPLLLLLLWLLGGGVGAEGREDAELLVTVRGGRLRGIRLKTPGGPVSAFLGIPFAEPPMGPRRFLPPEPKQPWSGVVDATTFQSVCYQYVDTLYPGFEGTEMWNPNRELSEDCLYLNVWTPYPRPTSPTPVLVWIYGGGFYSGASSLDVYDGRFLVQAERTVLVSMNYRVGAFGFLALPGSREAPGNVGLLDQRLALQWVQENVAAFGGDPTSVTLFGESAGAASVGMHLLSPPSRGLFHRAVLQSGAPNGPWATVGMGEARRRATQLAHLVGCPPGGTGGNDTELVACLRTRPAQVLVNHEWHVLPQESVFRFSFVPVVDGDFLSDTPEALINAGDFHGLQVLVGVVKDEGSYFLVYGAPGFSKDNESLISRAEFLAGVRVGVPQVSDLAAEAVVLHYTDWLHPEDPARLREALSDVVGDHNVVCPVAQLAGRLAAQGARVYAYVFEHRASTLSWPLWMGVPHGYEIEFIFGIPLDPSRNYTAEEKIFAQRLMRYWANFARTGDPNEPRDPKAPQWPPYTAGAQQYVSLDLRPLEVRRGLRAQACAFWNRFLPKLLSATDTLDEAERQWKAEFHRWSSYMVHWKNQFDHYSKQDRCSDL

physchem = details: PAMPA, pH 7.4
Description: Permeability of the compound at pH 7.4 at 1 mg/ml after 4 hrs by PAMPA-BBB assay

SH-SY5Y [3] = assay: Neuroprotective activity against rotenone/oligomycin A-induced mitochondrial oxidative stress in human SH-SY5Y cells assessed as cell survival at 0.3 uM pretreated for 24 hrs followed by rotenone/oligomycin A challenge measured after 24 hrs by MTT assay relative to control; assay type: functional; details: read-out: Survival
Cholinesterase = Cholinesterase (Homo sapiens, UniProt P06276); assay: Inhibition of human serum BuChE using butyrylthiocholine iodide as substrate pretreated for 5 mins followed by substrate addition measured for 5 mins by UV-Vis spectrophotometric method
Sequence of Cholinesterase (P06276 whole entry): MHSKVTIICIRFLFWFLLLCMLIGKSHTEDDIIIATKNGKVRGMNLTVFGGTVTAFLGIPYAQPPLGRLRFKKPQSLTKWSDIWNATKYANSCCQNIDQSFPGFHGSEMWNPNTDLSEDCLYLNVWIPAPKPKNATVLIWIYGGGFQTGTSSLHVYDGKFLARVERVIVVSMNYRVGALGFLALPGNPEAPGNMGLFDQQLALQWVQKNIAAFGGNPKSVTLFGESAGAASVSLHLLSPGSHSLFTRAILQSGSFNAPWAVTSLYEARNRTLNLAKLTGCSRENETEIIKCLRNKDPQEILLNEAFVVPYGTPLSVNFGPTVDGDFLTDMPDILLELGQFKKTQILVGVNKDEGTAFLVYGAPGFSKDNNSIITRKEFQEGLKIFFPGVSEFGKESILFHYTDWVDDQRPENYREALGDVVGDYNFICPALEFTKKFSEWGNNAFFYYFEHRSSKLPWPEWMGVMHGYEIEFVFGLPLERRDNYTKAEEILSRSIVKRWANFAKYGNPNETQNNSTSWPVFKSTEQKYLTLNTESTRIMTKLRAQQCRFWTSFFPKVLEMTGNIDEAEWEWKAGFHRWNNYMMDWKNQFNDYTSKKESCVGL

SH-SY5Y [4] = assay: Cytotoxicity against human SH-SY5Y cells at 0.3 uM after 24 hrs by MTT assay; assay type: cell-based
[5] = Inhibition of L-type voltage dependent calcium channel in bovine Chromaffin cells assessed as reduction in K+-induced cytosolic free calcium transient current preincubated for 5 mins followed by potassium challenge measured by Fluo-4AM dye based fluorescence assay; assay type: cell-based; details: Bos taurus
[6] = biological target: T1, Voltage-gated L-type calcium channel (Homo sapiens, UniProt Q13936+Q13698+Q01668+O60840); assay: Inhibition of L-type voltage dependent calcium channel in human SH-SY5Y cells assessed as reduction in K+-induced cytosolic free calcium transient current preincubated for 15 mins followed by potassium challenge measured for 14 secs by Fluo-4AM dye based fluorescence assay; assay type: cell-based
Bos taurus [7] = organism: Bos taurus; assay: Inhibition of L-type voltage dependent calcium channel in bovine Chromaffin cells assessed as reduction in K+-induced calcium current amplitude at 10 uM preincubated for 5 mins followed by potassium challenge measured by Fluo-4AM dye based fluorescence assay relative to control; assay type: cell-based
Bos taurus [8] = organism: Bos taurus; assay: Inhibition of L-type voltage dependent calcium channel in bovine Chromaffin cells assessed as reduction in K+-induced calcium transient current area at 10 uM preincubated for 5 mins followed by potassium challenge measured by Fluo-4AM dye based fluorescence assay relative to control; assay type: cell-based
Hippocampus [9] = assay: Neuroprotective activity in oxygen glucose deprivation/re-oxygenation-induced Sprague-Dawley rat hippocampal slice cerebral ischemia model assessed as cell viability at 3 uM incubated for 2 hrs under normoxic condition by MTT assay (reference value: 40%); assay type: functional
[10] = biological target: T1, Voltage-gated L-type calcium channel; assay: Inhibition of L-type voltage dependent calcium channel in human SH-SY5Y cells assessed as reduction in K+-induced cytosolic free calcium transient current at 100 uM preincubated for 15 mins followed by potassium challenge measured for 14 secs by Fluo-4AM dye based fluorescence assay relative to control; assay type: cell-based; details: 14 s
Homo sapiens = organism: Homo sapiens; assay: Ratio of IC50 for recombinant human AChE expressed in HEK293 cells to IC50 for human serum BuChE; assay type: cell-based
Hippocampus [11] = assay: Neuroprotective activity in oxygen glucose deprivation/re-oxygenation-induced Sprague-Dawley rat hippocampal slice cerebral ischemia model assessed as increase in cell viability incubated for 2 hrs under normoxic condition by MTT assay; assay type: functional, tissue-based
Hippocampus [12] = assay: Neuroprotective activity in oxygen glucose deprivation/re-oxygenation-induced Sprague-Dawley rat hippocampal slice cerebral ischemia model assessed as cell viability at 1 uM incubated for 2 hrs under normoxic condition by MTT assay (reference value: 40%); assay type: functional
[13] = Antioxidant activity assessed as oxygen radical absorbance capacity at 10 uM relative to trolox; assay type: functional

SMILES	viability at 0.3 µM (SH-SY5Y [1]) [%]	Activity [2]	IC50 (Acetylcholinesterase) [µM]	Papp at 4 h, 1 mg/ml (physchem) [×10⁻⁶ cm/s]	viability at 0.3 µM (SH-SY5Y [3]) [%]	IC50 (Cholinesterase) [µM]	Activity (SH-SY5Y [4])	IC50 [5] [µM]	IC50 [6] [µM]	inhibition (Bos taurus [7]) [%]	inhibition (Bos taurus [8]) [%]	Activity (Hippocampus [9]) [%]	%max [10] [%]	Ratio IC50 (Homo sapiens)	Activity (Hippocampus [11])	Activity (Hippocampus [12]) [%]	Activity [13] [%]
O=C(CC[C@H](NC(=O)c1ccccc1)C(=O)O)NCCC1CCN(Cc2ccccc2)CC1	50.6	inactive	0.76	3.5	46.5	> 10	Non-Toxic										
CCCCCCOC(=O)[C@H](CCC(=O)NCCC1CCN(Cc2ccccc2)CC1)NC(=O)c1ccccc1	53.4	inactive			44.1		Non-Toxic	5.31	14.1	40	80	55					
COc1ccc2[nH]cc(CCNC(C)=O)c2c1 [MELATONIN]	31.4				33.4												
CCOC(=O)CC[C@H](NC(=O)OCc1ccccc1)C(=O)NCCC1CCN(Cc2ccccc2)CC1	42.7	inactive	4.99	21	35.2	0.4	Non-Toxic		90.1			69	63	10	Dose-dependent effect	48	
CCOC(=O)CC[C@H](NC(=O)OCc1ccccc1)C(=O)OCC	51.6	inactive	> 10		37.3	> 10	Non-Toxic										
CCOC(=O)[C@H](CCC(=O)NCCC1CCN(Cc2ccccc2)CC1)NC(=O)c1ccccc1	50.9	inactive	0.85	5.2	38.6	1.3	Non-Toxic										
CCOC(=O)[C@@H](CCC(=O)NCCC1CCN(Cc2ccccc2)CC1)NC(=O)c1ccccc1	39.8	inactive	0.5	6.6	15.1	0.39	Non-Toxic										
CCCCCCOC(=O)[C@H](CCC(=O)NCCC1CCN(Cc2ccccc2)CC1)NC(=O)c1c[nH]c2ccccc12	31.8		3.04	9.6	22.1	1.85	Non-Toxic										70 to 73
O=C(CC[C@@H](NC(=O)c1ccccc1)C(=O)O)NCCC1CCN(Cc2ccccc2)CC1	38.5	inactive	20	4.6	22.6	82	Non-Toxic										
O=C(CC[C@H](NC(=O)c1c[nH]c2ccccc12)C(=O)O)NCCC1CCN(Cc2ccccc2)CC1	48.4		6.4	1.8	34.6	71	Non-Toxic										70 to 73
CCCCCCOC(=O)[C@@H](CCC(=O)NCCC1CCN(Cc2ccccc2)CC1)NC(=O)c1ccccc1	32.2	inactive	0.89	13.9	13	0.36	Non-Toxic										
CCOC(=O)CC[C@@H](NC(=O)OCc1ccccc1)C(=O)OCC	47.1	inactive	> 10		34.7	> 10	Non-Toxic										
COc1ccc2cc(C(=O)N[C@@H](CCC(=O)NCCC3CCN(Cc4ccccc4)CC3)C(=O)O)ccc2c1	45	inactive	15.2		35	97	Non-Toxic										
CCOC(=O)CC[C@@H](NC(=O)OCc1ccccc1)C(=O)NCCC1CCN(Cc2ccccc2)CC1	47	inactive	3	16.7	31.6	0.17	Non-Toxic							10			
CCOC(=O)[C@H](CCC(=O)NCCC1CCN(Cc2ccccc2)CC1)NC(=O)c1c[nH]c2ccccc12	42.4		1.9	4.5	39.5	0.3	Non-Toxic										70 to 73
CCOC(=O)[C@H](CCC(=O)NCCC1CCN(Cc2ccccc2)CC1)NC(=O)c1ccc2cc(OC)ccc2c1	37.7	inactive	0.89	8.3	25.3	3.8	Non-Toxic										
